Drawing on PubChem BioAssay (NCI), this text covers TGI for four compounds.

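Test compounds were applied to cells in 96-well plates for 48 hours at 5 doses. TGI marks complete inhibition of growth.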 A value given as a limit tells only on which side of the number the result lay.

The first assay concerns 786-0 renal. Nature of the assay: inhibition of tumour cell growth, NCI panel, 48 h.
Consider `CNS(=O)(=O)NNS(=O)(=O)c1ccccc1`, for which the TGI is more than 100 µM.

`OCC1=CC(NC2CC(CO)C(O)C(O)C2O)C(O)C(O)C1O` (configuration not stated): the TGI is more than 100 µM.

Consider `O=C1C=CC(=O)c2c1ccc1c3ccccc3n(CCCCCCCCCCCCn3c4ccccc4c4ccc5c(c43)C(=O)C=CC5=O)c21`, for which the TGI was more than 100 µM.

`CNC(=S)OCCC(C)CCCC(C)C` (configuration not stated) showed a TGI of 30.9 µM.

Another assay deals with A498 renal. Nature of the assay: inhibition of tumour cell growth, NCI panel, 48 h.
Turning to `CNS(=O)(=O)NNS(=O)(=O)c1ccccc1`, the TGI was more than 100 µM.

Consider `O=C1C=CC(=O)c2c1ccc1c3ccccc3n(CCCCCCCCCCCCn3c4ccccc4c4ccc5c(c43)C(=O)C=CC5=O)c21`, for which the TGI is more than 100 µM.

In turn, `CNC(=S)OCCC(C)CCCC(C)C` (configuration not stated) gave a TGI of 30 µM.

The test system of another assay is A549 NSCLC. Nature of the assay: inhibition of tumour cell growth, NCI panel, 48 h.
For `CNS(=O)(=O)NNS(=O)(=O)c1ccccc1`, the TGI is more than 100 µM.

Regarding `OCC1=CC(NC2CC(CO)C(O)C(O)C2O)C(O)C(O)C1O` (configuration not stated), the TGI is more than 100 µM.

On to `O=C1C=CC(=O)c2c1ccc1c3ccccc3n(CCCCCCCCCCCCn3c4ccccc4c4ccc5c(c43)C(=O)C=CC5=O)c21`, for which the TGI is more than 100 µM.

With `CNC(=S)OCCC(C)CCCC(C)C` (configuration not stated), the TGI worked out at 32.5 µM.

For the next assay, the system named is ACHN renal. In words: inhibition of tumour cell growth, NCI panel, 48 h.
`CNS(=O)(=O)NNS(=O)(=O)c1ccccc1` displayed a TGI of more than 100 µM.

Compound `OCC1=CC(NC2CC(CO)C(O)C(O)C2O)C(O)C(O)C1O` (configuration not stated) had a TGI of more than 100 µM.

On to `O=C1C=CC(=O)c2c1ccc1c3ccccc3n(CCCCCCCCCCCCn3c4ccccc4c4ccc5c(c43)C(=O)C=CC5=O)c21`, for which the TGI is more than 100 µM.

Compound `CNC(=S)OCCC(C)CCCC(C)C` (configuration not stated) returned a TGI of 32.8 µM.

The subject of another assay is BT-549 breast. Nature of the assay: inhibition of tumour cell growth, NCI panel, 48 h.
In turn, `O=C1C=CC(=O)c2c1ccc1c3ccccc3n(CCCCCCCCCCCCn3c4ccccc4c4ccc5c(c43)C(=O)C=CC5=O)c21` registered a TGI of more than 100 µM.

The subject of another assay is CAKI-1 renal. Nature of the assay: inhibition of tumour cell growth, NCI panel, 48 h.
`CNS(=O)(=O)NNS(=O)(=O)c1ccccc1` yielded a TGI of more than 100 µM.

Consider `O=C1C=CC(=O)c2c1ccc1c3ccccc3n(CCCCCCCCCCCCn3c4ccccc4c4ccc5c(c43)C(=O)C=CC5=O)c21`, for which the TGI is more than 100 µM.

In turn, `CNC(=S)OCCC(C)CCCC(C)C` (configuration not stated) gave a TGI of 31.7 µM.

The subject of another assay is CCRF-CEM leukemia. Nature of the assay: inhibition of tumour cell growth, NCI panel, 48 h.
Turning to `CNS(=O)(=O)NNS(=O)(=O)c1ccccc1`, the TGI is more than 100 µM.

In turn, `OCC1=CC(NC2CC(CO)C(O)C(O)C2O)C(O)C(O)C1O` (configuration not stated) showed a TGI of more than 100 µM.

`O=C1C=CC(=O)c2c1ccc1c3ccccc3n(CCCCCCCCCCCCn3c4ccccc4c4ccc5c(c43)C(=O)C=CC5=O)c21` showed a TGI of 74.1 µM.

As for `CNC(=S)OCCC(C)CCCC(C)C` (configuration not stated), the TGI amounted to 40.7 µM.

The next assay deals with COLO 205 colon. In words: inhibition of tumour cell growth, NCI panel, 48 h.
Compound `CNS(=O)(=O)NNS(=O)(=O)c1ccccc1` showed a TGI of more than 100 µM.

`OCC1=CC(NC2CC(CO)C(O)C(O)C2O)C(O)C(O)C1O` (configuration not stated): the TGI is more than 100 µM.

`O=C1C=CC(=O)c2c1ccc1c3ccccc3n(CCCCCCCCCCCCn3c4ccccc4c4ccc5c(c43)C(=O)C=CC5=O)c21`: the TGI is more than 100 µM.

A further assay concerns DLD-1 colon. Nature of the assay: inhibition of tumour cell growth, NCI panel, 48 h.
`CNS(=O)(=O)NNS(=O)(=O)c1ccccc1` gave a TGI of more than 100 µM.

Regarding `OCC1=CC(NC2CC(CO)C(O)C(O)C2O)C(O)C(O)C1O` (configuration not stated), the TGI is more than 100 µM.

With `CNC(=S)OCCC(C)CCCC(C)C` (configuration not stated), the TGI was 28.9 µM.

The test system of the next assay is DMS 114 small cell lung. In words: inhibition of tumour cell growth, NCI panel, 48 h.
`CNS(=O)(=O)NNS(=O)(=O)c1ccccc1` registered a TGI of more than 100 µM.

In turn, `OCC1=CC(NC2CC(CO)C(O)C(O)C2O)C(O)C(O)C1O` (configuration not stated) had a TGI of more than 100 µM.

The next assay concerns DMS 273 small cell lung. In words: inhibition of tumour cell growth, NCI panel, 48 h.
The compound `CNS(=O)(=O)NNS(=O)(=O)c1ccccc1` showed a TGI of more than 100 µM.

The compound `OCC1=CC(NC2CC(CO)C(O)C(O)C2O)C(O)C(O)C1O` (configuration not stated) showed a TGI of more than 100 µM.

In turn, `CNC(=S)OCCC(C)CCCC(C)C` (configuration not stated) registered a TGI of 30.7 µM.

The next assay deals with DU-145 prostate. Nature of the assay: inhibition of tumour cell growth, NCI panel, 48 h.
Regarding `O=C1C=CC(=O)c2c1ccc1c3ccccc3n(CCCCCCCCCCCCn3c4ccccc4c4ccc5c(c43)C(=O)C=CC5=O)c21`, the TGI is more than 100 µM.

The subject of another assay is EKVX NSCLC. Nature of the assay: inhibition of tumour cell growth, NCI panel, 48 h.
With `CNS(=O)(=O)NNS(=O)(=O)c1ccccc1`, the TGI was more than 100 µM.

`OCC1=CC(NC2CC(CO)C(O)C(O)C2O)C(O)C(O)C1O` (configuration not stated): the TGI is more than 100 µM.

As to `O=C1C=CC(=O)c2c1ccc1c3ccccc3n(CCCCCCCCCCCCn3c4ccccc4c4ccc5c(c43)C(=O)C=CC5=O)c21`, the TGI was more than 100 µM.

`CNC(=S)OCCC(C)CCCC(C)C` (configuration not stated) returned a TGI of 31.7 µM.

For another assay, the system named is HCC-2998 colon. In words: inhibition of tumour cell growth, NCI panel, 48 h.
`CNS(=O)(=O)NNS(=O)(=O)c1ccccc1` showed a TGI of more than 100 µM.

As to `O=C1C=CC(=O)c2c1ccc1c3ccccc3n(CCCCCCCCCCCCn3c4ccccc4c4ccc5c(c43)C(=O)C=CC5=O)c21`, the TGI is more than 46.4 µM.

`CNC(=S)OCCC(C)CCCC(C)C` (configuration not stated) gave a TGI of 32.2 µM.

The subject of a further assay is HCT-116 colon. Nature of the assay: inhibition of tumour cell growth, NCI panel, 48 h.
On to `CNS(=O)(=O)NNS(=O)(=O)c1ccccc1`, for which the TGI is more than 100 µM.

The compound `OCC1=CC(NC2CC(CO)C(O)C(O)C2O)C(O)C(O)C1O` (configuration not stated) returned a TGI of more than 100 µM.

Regarding `O=C1C=CC(=O)c2c1ccc1c3ccccc3n(CCCCCCCCCCCCn3c4ccccc4c4ccc5c(c43)C(=O)C=CC5=O)c21`, the TGI is more than 100 µM.

For the compound `CNC(=S)OCCC(C)CCCC(C)C` (configuration not stated), the TGI was 30.7 µM.

The subject of another assay is HCT-15 colon. In words: inhibition of tumour cell growth, NCI panel, 48 h.
As to `CNS(=O)(=O)NNS(=O)(=O)c1ccccc1`, the TGI is more than 100 µM.

`OCC1=CC(NC2CC(CO)C(O)C(O)C2O)C(O)C(O)C1O` (configuration not stated) came in with a TGI of more than 100 µM.

As for `O=C1C=CC(=O)c2c1ccc1c3ccccc3n(CCCCCCCCCCCCn3c4ccccc4c4ccc5c(c43)C(=O)C=CC5=O)c21`, the TGI was more than 100 µM.

For the compound `CNC(=S)OCCC(C)CCCC(C)C` (configuration not stated), the TGI was 27.9 µM.

The test system of the next assay is HL-60(TB) leukemia. Nature of the assay: inhibition of tumour cell growth, NCI panel, 48 h.
As to `CNS(=O)(=O)NNS(=O)(=O)c1ccccc1`, the TGI is more than 100 µM.

In the case of `O=C1C=CC(=O)c2c1ccc1c3ccccc3n(CCCCCCCCCCCCn3c4ccccc4c4ccc5c(c43)C(=O)C=CC5=O)c21`, the TGI was more than 91.3 µM.
